Results: patent US9528990B2, “Fluorogenic/fluorescent probes derivative from sulfoxanthene, and use thereof” (bioMérieux, priority 2014, dated 2016)
Values belong to the molecule of their own block, whether it stands above or below them.

Legend:
[1] = system: E. coli K12; assay: Bacterial azoreduction overnight, compared with Methyl Red; type: cell-based; conditions: 100 μM, overnight 37° C.
Method: a) The bacterial reduction of SR101-Q-CO2H was compared to the one of Methyl Red, an azo dye. Each molecule at 100 μM in Trypcase Soya Broth in presence 7.5*10^7 colonies forming unit (cfu) of E. coli K12 was incubated overnight at 37° C. The fluorescence produced by the azoreduction of Methyl Red was measured at 395 nm under an excitation wavelength of 250 nm. The fluorescence produced by the azoreduction of SR101-Q-CO2H was measured at 580 nm under an excitation wavelength of 550 nm. For Methyl Red the ratio between medium with and without bacteria was 469/184 (×2.5). For SR101-Q-CO2H, it was 19 times upper: 17269/363 (×48).

[2] = target: nitroreductase from Escherichia coli (NfsA) (Escherichia coli, UniProt P17117); assay: Kinetic study of SR101-NO2 with purified nitroreductase; type: biochemical
Method: A kinetic study was carried out by incubating the substrate SR101-NO2 in PBS at 37.5° C., at a concentration of about 5 μM.
Successive additions of NADH and nitroreductase from Escherichia coli (NfsA=4×2.5 μg) were performed and the fluorescence at 575 nm (emission maximum of SR101-110) was measured, under an excitation wavelength of 500 nm.

[3] = system: E. coli strain (ATCC 25922); assay: Reduction of SR101-NO2 by growing E. coli cells, followed by fluorescence; type: cell-based, Escherichia coli; conditions: about 10^6 cfu/ml, Trypcase Soya Broth, 37° C.; 0-100 μM as SR101-110/SR101-NO2 about 10/90; ex 550 nm, em 580 nm (FIG. 1c)
Method: The reduction of SR101-NO2 by an E. coli strain (ATCC 25922), known for its nitroreduction ability, was analyzed in fluorescence.
This kinetic study was carried out with an initial concentration of cells around 10^6 cfu/ml, growing in Trypcase Soya Broth at 37° C., in presence of different concentrations of fluorogenic substrate (from 0 μM to 100 μM). For this study, said fluorogenic substrate is used in the form of a SR101-110/SR101-NO2 (with a ratio of about 10/90).
The fluorescence at 580 nm was measured, under an excitation wavelength of 550 nm.

[4] = system: sulfatase from Helix pomatia; assay: Kinetic study with sulfatase; type: biochemical; conditions: about 10 μM, PBS pH 7.4, 7.8 units sulfatase, 37° C.; ex 540 nm
Method: A kinetic study of SR101-NaphtO(SO3H) was carried out by incubating this fluorogenic substrate, previously solubilized in phosphate buffered saline (pH 7.4) at a concentration of about 10 μM, with 7.8 units of a sulfatase from Helix pomatia, at 37° C. The evolution of the intensity of fluorescence at 600 nm, emitted under an excitation wavelength of 540 nm, was recorded and is presented in FIG. 6.

[5] = Chemically simulated myeloperoxidase activity with sodium hypochlorite; conditions: about 10 μM, PBS pH 7.4, 150 equivalents sodium hypochlorite, 25° C.; ex 540 nm
Method: A kinetic study of SR101-NaphtO(para-aminophenyl) acid was carried out by incubating this fluorogenic substrate, previously solubilized in phosphate buffered saline (pH 7.4) at a concentration of about 10 μM, with 150 equivalents of sodium hypochlorite, at 25° C.
This chemical procedure using sodium hypochlorite is routinely used to simulate a myeloperoxidase activity (Shepherd et al., Chemistry and Biology, 2007, 14: 1221-1231).
The evolution of the intensity of fluorescence at 650 nm, emitted under an excitation wavelength of 540 nm, was recorded and is presented in FIG. 7.

[6] = system: pig liver esterase (PLE); assay: Kinetic study with carboxylesterase; type: biochemical; conditions: about 5 μM, PBS pH 7.4, 10 units PLE, 37° C.; ex 540 nm (SR101-NaphtOAc) or 530 nm (SR101-NaphtO-lauric acid)
Method: 1. A kinetic study of SR101-NaphtOAc was carried out by incubating this fluorogenic substrate, previously solubilized in phosphate buffered saline (pH 7.4) at a concentration of about 5 μM, with 10 units of pig liver esterase (PLE), at 37° C. The evolution of the intensity of fluorescence at 600 nm, emitted under an excitation wavelength of 540 nm, was recorded and is presented in FIG. 5a. 2. A kinetic study of SR101-NaphtO-lauric acid was carried out by incubating this fluorogenic substrate, previously solubilized in phosphate buffered saline (pH 7.4) at a concentration of about 5 μM, with 10 units of pig liver esterase (PLE), at 37° C. The evolution of the intensity of fluorescence at 600 nm, emitted under an excitation wavelength of 530 nm, was recorded and is presented in FIG. 5b.

[7] = emitted fluorescence before and after the reduction (FIG. 1b)

Sequence of nitroreductase from Escherichia coli (NfsA) (P17117 whole entry): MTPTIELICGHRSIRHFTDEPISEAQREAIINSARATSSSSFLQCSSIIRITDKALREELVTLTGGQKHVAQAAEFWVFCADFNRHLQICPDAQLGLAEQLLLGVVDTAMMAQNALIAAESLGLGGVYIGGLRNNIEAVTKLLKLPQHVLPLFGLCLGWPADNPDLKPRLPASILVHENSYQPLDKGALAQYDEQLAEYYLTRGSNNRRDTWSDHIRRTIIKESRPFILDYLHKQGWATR

SMILES: CN(C)c1ccc(/N=N/c2ccccc2C(=O)O)cc1 [Methyl Red]
fluorescence of medium with bacteria ([1]; Trypcase Soya Broth, 7.5*10^7 cfu, Methyl Red ex 250/em 395 nm, SR101-Q-CO2H ex 550/em 580 nm): 469 | ratio between medium with and without bacteria (×) [1]: 2.5

SMILES: O=[N+]([O-])c1ccc2c(c1)Oc1c3c4c(cc1=C2c1ccc(S(=O)(=O)O)cc1S(=O)(=O)[O-])CCC[N+]=4CCC3 [SR101-NO2]
reduction of the substrate by nitroreductase ([2]; 5 μM substrate, total 10 μg enzyme (4×2.5 μg), after an hour of incubation at 37.5° C.): complete reduction | influence of NADH alone on the evolution of the fluorescence ([2]; NADH 0.5 mM, no enzyme, about 5 μM substrate in PBS, 37.5° C., ex 500 nm, em 575 nm): did not influence | fluorescence enhancement (factor) [2, 7]: 15 | quenching efficiency [2, 7]: 92% | nitroreduction by growing cells (fluorescence evolution) [3]: progressive nitroreduction

fluorescence at 600 nm after addition of the sulfatase [4]: remarkable fluorescence enhancement
SMILES: O=S(=O)(O)Oc1ccc2c3c(ccc2c1)C(c1ccc(S(=O)(=O)[O-])cc1S(=O)(=O)O)=c1cc2c4c(c1O3)CCC[N+]=4CCC2 [SR101-NaphtO(SO3H)]

fluorescence at 650 nm after addition of sodium hypochlorite [5]: remarkable fluorescence enhancement
SMILES: Nc1ccc(Oc2ccc3c4c(ccc3c2)C(c2ccc(S(=O)(=O)O)cc2S(=O)(=O)O)=c2cc3c5c(c2O4)CCC[N+]=5CCC3)cc1 [SR101-NaphtO(para-aminophenyl)]

fluorescence at 600 nm after addition of the esterase [6]: remarkable fluorescence enhancement
SMILES: CCCCCCCCCCCC(=O)Oc1ccc2c3c(ccc2c1)C(c1ccc(S(=O)(=O)O)cc1S(=O)(=O)O)=c1cc2c4c(c1O3)CCC[N+]=4CCC2 [SR101-NaphtO-lauric acid]

fluorescence at 600 nm after addition of the esterase [6]: remarkable fluorescence enhancement
SMILES: CC(=O)Oc1ccc2c3c(ccc2c1)C(c1ccc(S(=O)(=O)[O-])cc1S(=O)(=O)O)=c1cc2c4c(c1O3)CCC[N+]=4CCC2 [SR101-NaphtOAc]
